The values that follow come from patent US12606561B2, “Substituted pyrazolo[1,5-a][1,3,5]triazines as CDK inhibitors” (QURIENT CO., LTD., priority 2018, dated 2026).

Structures are written as SMILES.

One assay deals with T1, CDK1/Cyclin B (Homo sapiens, UniProt P06493).
T1 construct: purchased Invitrogen PR4768C
In words: Enzymatic assay for CDK1 (LANCE Ultra kinase assay, FRET based). The format is biochemical. To be noted: ATP at Km; read-out: CDK1 enzymatic activity IC50. Here is the method:
(§1) Enzymatic Binding Assay Protocol for CDK1, CDK2, CDK5 and CDK7
(§2) Inhibition activity of the respective compound on CDK kinase under Km value of ATP was tested in FRET based The LANCE® Ultra kinase assay (Perkin Elmer), which uses a ULight™-labeled peptide substrate and an appropriate Europium-labeled anti-phospho-antibody. […] After 1 min centrifugation at 1000 rpm, purified CDKs/Cyclin complex were added with the following concentrations respectively. […] Data were analyzed using XL Fit software.

The next assay deals with T2, CDK2/Cyclin A (Homo sapiens, UniProt P24941).
T2 construct: purchased Invitrogen PV6290
In words: Enzymatic assay for CDK2 (LANCE Ultra kinase assay, FRET based). The format is biochemical. As to conditions: ATP at Km. As for the experimental part:
as §1
(§3) Inhibition activity of the respective compound on CDK kinase under Km value of ATP was tested in FRET based The LANCE® Ultra kinase assay (Perkin Elmer), which uses a ULight™-labeled peptide substrate and an appropriate Europium-labeled anti-phospho-antibody. Test compounds were made with DMSO solutions, and then 4-fold serial dilutions for 8 doses were prepared using automated liquid handler (POD™ 810, Labcyte) and 80 nL/well of diluted compound solutions were added into the 384-well plates (Greiner, Cat #784075). And then 68 nM of ULight-MBP peptide (Perkin Elmer, Cat #TRF0109-M) and 5 ul/well of ATP (Sigma, Cat #A7699) were added to the plate. After 1 min centrifugation at 1000 rpm, purified CDKs/Cyclin complex were added with the following concentrations respectively. 24 uM for CDK1/Cyclin B (Invitrogen, Cat #PR4768C), 22 uM for CDK2/Cyclin A (Invitrogen, Cat #PV6290), 10 uM for CDK5/p25 (Invitrogen, Cat #PR8543B) and […] for CDK7/Cyclin H/MNAT1 (Invitrogen, Cat #PR6749B) were added to each corresponding plate for CDK1, CDK2, CDK5 and CDK7. Incubate at 23° C. for 60 min and then Eu-labeled anti-phospho-Myelin Basic Protein (PE, Cat #TRF0201-M) and EDTA (Invitrogen, Cat #15575038) mixture in Lance Detection Buffer (Perkin Elmer, Cat #CR97100) was added in each well. After additional incubation at 23° C. for 60 min, test articles were measured the fluorescence using Envision leader (Perkin Elmer, USA) [Laser as excitation light; […] as the first and the second emission filter]. Data were analyzed using XL Fit software.

A further assay addresses T3, CDK5/p25 (Homo sapiens, UniProt Q00535).
T3 construct: purchased Invitrogen PR8543B
In words: Enzymatic assay for CDK5 (LANCE Ultra kinase assay, FRET based). Format: biochemical. To be noted: ATP at Km. Here is the method: as §1, §3

A further assay addresses T4, CDK7/Cyclin H/MNAT1 (Homo sapiens, UniProt P50613).
T4 construct: purchased Invitrogen PR6749B
Nature of the assay: Enzymatic assay for CDK7 (LANCE Ultra kinase assay, FRET based). To be noted: for IC50: ATP at Km. The format is biochemical. Here is the method: as §1, §2

The subject of another assay is A2780. In words: A2780 viability assay (CellTiter-Glo, 72 hours). Format: cell-based. As to conditions: Homo sapiens; A2780 cells. As for the experimental part: Human […] cell line, MV4-11_(ATCC, Cat #CRL-9591), NSCLC (Non-small cell lung cancer) cell line H460 (ATCC, Cat #HTB-177), A2780 (ECACC, Cat #93112519) and OVCAR-3(ATCC, Cat #HTB-161) were obtained from ATCC. Cells were grown in RPMI-1640 media (Invitrogen, Cat #22400-089) supplemented with 10% FBS (Invitrogen, Cat #10099141) and 1% penicillin/streptomycin (Invitrogen, Cat #15070063) and cultured at 37° C., 5% CO2 in a humidified chamber. All cell lines were routinely tested for mycoplasma.
To effect of the CDK7 inhibitor to inhibit the growth of target cancer cells, viability assay were conducted a 72 hour time period. Briefly, the candidate cell line was plated in 96 well plate at the following density of cells respectively. 1×10^4 cells/well for MV4-11, 5×10^3 for H460 and OVCAR-3, and 1×10^3 for A2780. After 24 hours, the cells were treated with various concentrations of the compound (ranging from 0.0015 uM to 10 uM). DMSO solvent without compound served as a control and final DMSO concentration lest than 0.1%. After 72 hours of incubation at 37° C., 5% CO2 incubator, cells were analyzed for the viability using the CellTiter-Glo Luminescent Cell Viability Assay (Promega, Cat #G7570). All viability assays were performed in duplicate and Luminescence was read using an Envision (Perkin Elmer, USA). Data was analyzed using XLfit software.

T3 sequence (Q00535 whole entry): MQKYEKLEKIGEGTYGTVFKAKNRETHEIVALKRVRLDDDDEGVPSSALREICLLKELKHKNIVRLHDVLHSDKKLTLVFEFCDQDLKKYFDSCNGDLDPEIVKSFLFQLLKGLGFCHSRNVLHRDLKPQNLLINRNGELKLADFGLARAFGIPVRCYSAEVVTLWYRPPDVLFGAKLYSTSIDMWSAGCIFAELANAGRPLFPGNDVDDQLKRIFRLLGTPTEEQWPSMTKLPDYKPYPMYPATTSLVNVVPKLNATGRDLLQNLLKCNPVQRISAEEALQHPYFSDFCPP
T3 sequence (Q15078 99-307 partner limits assumed): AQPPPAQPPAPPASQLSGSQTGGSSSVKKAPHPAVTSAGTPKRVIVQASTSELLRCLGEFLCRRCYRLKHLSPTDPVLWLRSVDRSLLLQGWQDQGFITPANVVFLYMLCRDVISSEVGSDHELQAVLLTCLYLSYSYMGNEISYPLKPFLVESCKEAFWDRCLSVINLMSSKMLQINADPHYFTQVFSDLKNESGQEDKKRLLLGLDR
T1 sequence (P06493 whole entry): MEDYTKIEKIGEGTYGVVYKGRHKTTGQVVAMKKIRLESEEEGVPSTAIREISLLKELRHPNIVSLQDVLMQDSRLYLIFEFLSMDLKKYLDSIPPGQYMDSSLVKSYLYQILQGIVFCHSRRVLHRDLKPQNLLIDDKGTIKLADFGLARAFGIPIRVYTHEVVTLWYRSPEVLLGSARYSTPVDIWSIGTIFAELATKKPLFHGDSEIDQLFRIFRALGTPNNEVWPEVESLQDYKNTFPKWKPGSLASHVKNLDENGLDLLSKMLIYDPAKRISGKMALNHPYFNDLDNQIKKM
T1 sequence (P14635 whole entry partner): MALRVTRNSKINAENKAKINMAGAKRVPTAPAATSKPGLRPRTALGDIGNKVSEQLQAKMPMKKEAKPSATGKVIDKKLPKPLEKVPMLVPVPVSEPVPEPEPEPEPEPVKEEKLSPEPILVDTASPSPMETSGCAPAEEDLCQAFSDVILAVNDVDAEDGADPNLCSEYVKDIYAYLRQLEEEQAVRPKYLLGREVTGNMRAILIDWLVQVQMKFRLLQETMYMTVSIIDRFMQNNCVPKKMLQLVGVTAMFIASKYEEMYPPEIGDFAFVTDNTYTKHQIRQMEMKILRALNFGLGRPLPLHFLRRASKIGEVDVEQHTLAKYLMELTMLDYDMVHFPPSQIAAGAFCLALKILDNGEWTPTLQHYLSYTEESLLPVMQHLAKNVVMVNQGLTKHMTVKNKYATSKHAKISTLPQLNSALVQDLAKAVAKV
T4 sequence (P50613 whole entry): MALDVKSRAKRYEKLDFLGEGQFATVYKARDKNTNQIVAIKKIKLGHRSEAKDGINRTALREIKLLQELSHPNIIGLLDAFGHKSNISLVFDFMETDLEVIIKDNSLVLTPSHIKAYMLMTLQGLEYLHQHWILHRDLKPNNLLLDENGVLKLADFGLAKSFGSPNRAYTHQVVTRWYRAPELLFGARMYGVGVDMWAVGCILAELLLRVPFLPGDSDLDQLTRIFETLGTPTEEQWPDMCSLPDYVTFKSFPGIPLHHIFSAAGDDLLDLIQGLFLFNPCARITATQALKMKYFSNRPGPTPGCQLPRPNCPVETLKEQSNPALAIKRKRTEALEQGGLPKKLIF
T4 sequence (P51946 whole entry partner): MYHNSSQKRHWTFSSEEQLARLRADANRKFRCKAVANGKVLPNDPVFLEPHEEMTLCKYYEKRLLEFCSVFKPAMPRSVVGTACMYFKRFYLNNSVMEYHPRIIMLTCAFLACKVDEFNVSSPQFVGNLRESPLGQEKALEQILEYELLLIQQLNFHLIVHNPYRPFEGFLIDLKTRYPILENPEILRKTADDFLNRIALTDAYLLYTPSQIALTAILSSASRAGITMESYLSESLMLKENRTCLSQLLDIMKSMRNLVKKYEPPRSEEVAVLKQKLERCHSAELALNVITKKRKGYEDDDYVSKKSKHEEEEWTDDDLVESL
T4 sequence (P51948 whole entry partner): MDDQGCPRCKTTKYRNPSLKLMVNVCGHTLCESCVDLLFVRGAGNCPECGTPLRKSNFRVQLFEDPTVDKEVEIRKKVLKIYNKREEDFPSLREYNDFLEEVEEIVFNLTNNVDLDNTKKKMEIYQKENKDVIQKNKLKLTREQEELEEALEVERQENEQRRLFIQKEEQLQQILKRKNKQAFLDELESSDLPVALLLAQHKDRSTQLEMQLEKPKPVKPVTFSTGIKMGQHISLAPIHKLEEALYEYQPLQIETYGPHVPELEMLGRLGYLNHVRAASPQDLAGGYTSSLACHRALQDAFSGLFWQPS

`C=C(F)C(=O)Nc1ccc2c(-c3ccccc3CNc3nc(N[C@H]4CC[C@H](NC)CC4)nc4c(C(C)C)cnn34)nccc2c1` [Compound 146]: the IC50 at CDK1/Cyclin B was greater than 1 µM; on CDK2/Cyclin A it was greater than 1 µM; against CDK5/p25, greater than 1 µM; at CDK7/Cyclin H/MNAT1 it was less than 0.1 µM. Besides, the “CDK1/CDK7: Selectivity of CDK7 inhibition over CDK1 inhibition” value at CDK7/Cyclin H/MNAT1 was “A (A indicates [fold] > 500)”. For the same compound, the “CDK2/CDK7: Selectivity of CDK7 inhibition over CDK2 inhibition” value on CDK7/Cyclin H/MNAT1 was “A (A indicates [fold] > 500)”. For the same compound, on CDK7/Cyclin H/MNAT1, the “CDK5/CDK7: Selectivity of CDK7 inhibition over CDK5 inhibition” value is “A (A indicates [fold] > 500)”.

For `C=C(F)C(=O)Nc1ccc2c(-c3ccccc3CNc3nc(NC[C@H]4CNCCO4)nc4c(C(C)C)cnn34)nccc2c1` [Compound 148], at CDK1/Cyclin B, the IC50 was greater than 1 µM. This compound displayed an IC50 against CDK2/Cyclin A greater than 1 µM. The compound also showed an IC50 against CDK5/p25 greater than 1 µM. For the same compound, at CDK7/Cyclin H/MNAT1, the half-inhibitory concentration (IC50) is less than 0.1 µM, the “CDK1/CDK7: Selectivity of CDK7 inhibition over CDK1 inhibition” value is “B (B indicates 50 < [fold] ≤ 500)”, the “CDK2/CDK7: Selectivity of CDK7 inhibition over CDK2 inhibition” value was “B (B indicates 50 < [fold] ≤ 500)” and the “CDK5/CDK7: Selectivity of CDK7 inhibition over CDK5 inhibition” value is “B (B indicates 50 < [fold] ≤ 500)”.

In the case of `C=C(F)C(=O)Nc1ccc2c(-c3ccccc3CNc3nc(NC[C@@H]4CNCCO4)nc4c(C(C)C)cnn34)nccc2c1` [Compound 149], the half-inhibitory concentration (IC50) at CDK1/Cyclin B is greater than 1 µM; against CDK2/Cyclin A it was greater than 1 µM; against CDK5/p25, greater than 1 µM; at CDK7/Cyclin H/MNAT1 it was less than 0.1 µM. Also, the “CDK1/CDK7: Selectivity of CDK7 inhibition over CDK1 inhibition” value at CDK7/Cyclin H/MNAT1 is “B (B indicates 50 < [fold] ≤ 500)”. Further, the “CDK2/CDK7: Selectivity of CDK7 inhibition over CDK2 inhibition” value at CDK7/Cyclin H/MNAT1 is “C (C indicates [fold] ≤ 50)”. The “CDK5/CDK7: Selectivity of CDK7 inhibition over CDK5 inhibition” value at CDK7/Cyclin H/MNAT1 is “B (B indicates 50 < [fold] ≤ 500)”.

On to `CC(C)c1cnn2c(NCc3ccccc3-c3nccc4cc(NC(=O)/C=C/CN(C)C)ccc34)nc(O[C@@H]3CCCNC3)nc12` [Compound 152], for which the IC50 on CDK1/Cyclin B is greater than 1 µM. For the same compound, the IC50 against CDK2/Cyclin A is greater than 1 µM. On CDK5/p25, the concentration for half-maximal inhibition (IC50) was greater than 1 µM. Moreover, on CDK7/Cyclin H/MNAT1, the half-inhibitory concentration (IC50) is less than 0.1 µM, the “CDK1/CDK7: Selectivity of CDK7 inhibition over CDK1 inhibition” value is “A (A indicates [fold] > 500)”, the “CDK2/CDK7: Selectivity of CDK7 inhibition over CDK2 inhibition” value was “A (A indicates [fold] > 500)” and the “CDK5/CDK7: Selectivity of CDK7 inhibition over CDK5 inhibition” value is “A (A indicates [fold] > 500)”.

For `CO[C@H]1CC[C@H](Nc2nc(NCc3ccccc3-c3nccc4cc(NC(=O)/C=C/CN5CCCCC5)ccc34)n3ncc(C(C)C)c3n2)CC1` [Compound 155], the IC50 at CDK1/Cyclin B is greater than 1 µM. The same compound gave an IC50 on CDK2/Cyclin A greater than 1 µM. The compound also had an IC50 against CDK5/p25 greater than 1 µM. Moreover, on CDK7/Cyclin H/MNAT1, the IC50 was less than 0.1 µM, the “CDK1/CDK7: Selectivity of CDK7 inhibition over CDK1 inhibition” value is “A (A indicates [fold] > 500)”, the “CDK2/CDK7: Selectivity of CDK7 inhibition over CDK2 inhibition” value was “A (A indicates [fold] > 500)” and the “CDK5/CDK7: Selectivity of CDK7 inhibition over CDK5 inhibition” value is “A (A indicates [fold] > 500)”.

In the case of `C=CC(=O)Nc1ccc2c(-c3ccccc3CNc3cc(NC4CCC(C)(C)NC4)nc4c(C(C)C)cnn34)nccc2c1` (stereo not shown) [Compound 184], the concentration for half-maximal inhibition (IC50) on CDK1/Cyclin B was greater than 1 µM; against CDK2/Cyclin A, greater than 1 µM; on CDK5/p25, greater than 1 µM; at CDK7/Cyclin H/MNAT1, less than 0.1 µM; in the assay on A2780, less than 1 µM. Moreover, the “CDK1/CDK7: Selectivity of CDK7 inhibition over CDK1 inhibition” value at CDK7/Cyclin H/MNAT1 is “A (A indicates [fold] > 500)”. The “CDK2/CDK7: Selectivity of CDK7 inhibition over CDK2 inhibition” value at CDK7/Cyclin H/MNAT1 is “A (A indicates [fold] > 500)”. Moreover, on CDK7/Cyclin H/MNAT1, the “CDK5/CDK7: Selectivity of CDK7 inhibition over CDK5 inhibition” value was “A (A indicates [fold] > 500)”.
